Results from patent US20260184675A1, “CHIRAL ISOMERIC SULFITE COMPOUND AND APPLICATION THEREOF” (Chengdu Hanova BioSciences Co., Ltd, priority 2024, published 2026).

Tests used:
Assay type in all cases: in vivo
[1] = test system: eggs of Tetranychus urticae; test: Effect on hatching of eggs of Tetranychus urticae, leaf disc method; conditions: 5 ppm; for Hatching rate (%): 5 days after insecticide delivery
Procedure, shortened: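 This leaf disc test measured inhibition of Tetranychus urticae egg hatching. Eggs laid on Vicia faba discs were counted microscopically, and the discs were soaked for 10 seconds in compound at 5 ppm, with clear water as control. They were incubated under controlled temperature and humidity with strong indirect light, avoiding condensate. Hatched eggs, leaf damage and developmental abnormalities were recorded five days after delivery.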

eggs of Panonychus citri = test: Effect on hatching of eggs of Panonychus citri, leaf disc method; conditions: 1 ppm; for Hatching rate (%), Replicate 1 / Hatching rate (%), Replicate 2 / Hatching rate (%), Replicate 3 / Number of hatched larvae 5 days after insecticide delivery, Replicate 1 / Number of hatched larvae 5 days after insecticide delivery, Replicate 2 / Number of hatched larvae 5 days after insecticide delivery, Replicate 3: Panonychus citri eggs; for Hatching rate (%), Replicate 1 / Hatching rate (%), Replicate 2 / Hatching rate (%), Replicate 3: 5 days after delivery; for Number of hatched larvae 5 days after insecticide delivery, Replicate 1 / Number of hatched larvae 5 days after insecticide delivery, Replicate 2 / Number of hatched larvae 5 days after insecticide delivery, Replicate 3: leaf disc
eggs of Thrips = test: Effect on hatching of eggs of Thrips, leaf disc method; conditions: 100 ppm; for Hatching rate (%): 5 days after insecticide delivery
Procedure, shortened: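 Egg-bearing Vicia faba leaf discs (diameter 2.0 cm, wetted filter paper beneath) were counted microscopically for baseline eggs. They were then soaked for 10 seconds in water or in test agent at 100 ppm. After moist incubation in lidded dishes, with controlled temperature and humidity and adequate indirect light, hatched larvae were counted five days post-delivery to judge hatching inhibition.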

[2] = test system: eggs of Spodoptera litura; test: Effect on hatching of eggs of Spodoptera litura, egg piece soaking; conditions: 500 ppm; for Hatching rate (%), Replicate 1 / Hatching rate (%), Replicate 2 / Hatching rate (%), Replicate 3 / Number of unhatched larvae 4 days after insecticide delivery, Replicate 1 / Number of unhatched larvae 4 days after insecticide delivery, Replicate 2 / Number of unhatched larvae 4 days after insecticide delivery, Replicate 3: Spodoptera litura eggs; for Hatching rate (%), Replicate 1 / Hatching rate (%), Replicate 2 / Hatching rate (%), Replicate 3: 4 days after delivery; for Number of unhatched larvae 4 days after insecticide delivery, Replicate 1 / Number of unhatched larvae 4 days after insecticide delivery, Replicate 2 / Number of unhatched larvae 4 days after insecticide delivery, Replicate 3: soaked 10 minutes
Procedure, shortened: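 Egg pieces of about 60 eggs were soaked 10 min in test agent at 500 ppm, blotted, then held singly at 24±1 °C, 80±10% RH, 12:12 L:D. Hatched and unhatched eggs were counted on day 4 to give hatching rate and control effect; 3 replicates.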

[3] = Replicate 1, listed as 1-(R, S)
[4] = Replicate 2, listed as 1-(R, S)
[5] = Replicate 3, listed as 1-(R, S)
[6] = Replicate 1, listed as 19-(S, S)
[7] = Replicate 2, listed as 19-(S, S)
[8] = Replicate 3, listed as 19-(S, S)

C[C@H](COS(=O)OCCF)Oc1ccc(Cl)cc1Cl (stereo partly drawn) [1-(R,S)]
Hatching rate (%) [1, 3]: 14.10% | Hatching rate (%) [1, 4]: 12.70% | Number of hatched larvae 5 days after insecticide delivery [1, 3]: 11 | Number of hatched larvae 5 days after insecticide delivery [1, 4]: 88 | Hatching rate (%), Replicate 1 (eggs of Panonychus citri; listed as 1-(R, S)): 7.14% | Hatching rate (%), Replicate 2 (eggs of Panonychus citri; listed as 1-(R, S)): 8.39% | Hatching rate (%), Replicate 3 (eggs of Panonychus citri; listed as 1-(R, S)): 8.14% | Number of hatched larvae 5 days after insecticide delivery, Replicate 1 (eggs of Panonychus citri; listed as 1-(R, S)): 7 | Number of hatched larvae 5 days after insecticide delivery, Replicate 2 (eggs of Panonychus citri; listed as 1-(R, S)): 12 | Number of hatched larvae 5 days after insecticide delivery, Replicate 3 (eggs of Panonychus citri; listed as 1-(R, S)): 7 | Hatching rate (%) (eggs of Thrips; [3]): 9.57% | Hatching rate (%) (eggs of Thrips; [4]): 9.02% | Hatching rate (%) (eggs of Thrips; [5]): 7.95% | Number of hatched larvae 5 days after insecticide delivery (eggs of Thrips; [3]): 9 | Number of hatched larvae 5 days after insecticide delivery (eggs of Thrips; [4]): 12 | Number of hatched larvae 5 days after insecticide delivery (eggs of Thrips; [5]): 7 | Hatching rate (%), Replicate 1 ([2]; listed as 1-(R, S)): 64.18% | Hatching rate (%), Replicate 2 ([2]; listed as 1-(R, S)): 61.40% | Hatching rate (%), Replicate 3 ([2]; listed as 1-(R, S)): 60.34% | Number of unhatched larvae 4 days after insecticide delivery, Replicate 1 ([2]; listed as 1-(R, S)): 25 | Number of unhatched larvae 4 days after insecticide delivery, Replicate 2 ([2]; listed as 1-(R, S)): 22 | Number of unhatched larvae 4 days after insecticide delivery, Replicate 3 ([2]; listed as 1-(R, S)): 23

CCC(COc1ccc(Cl)cc1Cl)OS(=O)OCCF [19-(S,S)]
Hatching rate (%) [1, 6]: 17.48% | Hatching rate (%) [1, 7]: 14.74% | Number of hatched larvae 5 days after insecticide delivery [1, 6]: 18 | Number of hatched larvae 5 days after insecticide delivery [1, 7]: 14 | Hatching rate (%), Replicate 1 (eggs of Panonychus citri; listed as 19-(S, S)): 10.08% | Hatching rate (%), Replicate 2 (eggs of Panonychus citri; listed as 19-(S, S)): 9.90% | Hatching rate (%), Replicate 3 (eggs of Panonychus citri; listed as 19-(S, S)): 10.47% | Number of hatched larvae 5 days after insecticide delivery, Replicate 1 (eggs of Panonychus citri; listed as 19-(S, S)): 12 | Number of hatched larvae 5 days after insecticide delivery, Replicate 2 (eggs of Panonychus citri; listed as 19-(S, S)): 10 | Number of hatched larvae 5 days after insecticide delivery, Replicate 3 (eggs of Panonychus citri; listed as 19-(S, S)): 9 | Hatching rate (%) (eggs of Thrips; [6]): 14.4% | Hatching rate (%) (eggs of Thrips; [7]): 13.89% | Hatching rate (%) (eggs of Thrips; [8]): 11.46% | Number of hatched larvae 5 days after insecticide delivery (eggs of Thrips; [6]): 18 | Number of hatched larvae 5 days after insecticide delivery (eggs of Thrips; [7]): 15 | Number of hatched larvae 5 days after insecticide delivery (eggs of Thrips; [8]): 11 | Hatching rate (%), Replicate 1 ([2]; listed as 19-(S, S)): 50.00% | Hatching rate (%), Replicate 2 ([2]; listed as 19-(S, S)): 51.72% | Hatching rate (%), Replicate 3 ([2]; listed as 19-(S, S)): 50.91% | Number of unhatched larvae 4 days after insecticide delivery, Replicate 1 ([2]; listed as 19-(S, S)): 30 | Number of unhatched larvae 4 days after insecticide delivery, Replicate 2 ([2]; listed as 19-(S, S)): 28 | Number of unhatched larvae 4 days after insecticide delivery, Replicate 3 ([2]; listed as 19-(S, S)): 27

CCC(COc1ccc(Cl)cc1Cl)OS(=O)OCCF (stereo not drawn) [Compound 19]
inhibitory activity on the hatching of eggs of Tetranychus urticae (in words) [1]: strong inhibitory activities | Hatching rate (%) ([1]; Replicate 1): 0.00% | Hatching rate (%) ([1]; Replicate 2): 1.09% | Number of hatched larvae 5 days after insecticide delivery ([1]; Replicate 1): 0 | Number of hatched larvae 5 days after insecticide delivery ([1]; Replicate 2): 1 | inhibitory effect on the hatching of eggs of Panonychus citri (in words) (eggs of Panonychus citri): good inhibitory effects | Hatching rate (%), Replicate 1 (eggs of Panonychus citri): 0.00% | Hatching rate (%), Replicate 2 (eggs of Panonychus citri): 0.00% | Hatching rate (%), Replicate 3 (eggs of Panonychus citri): 0.00% | Number of hatched larvae 5 days after insecticide delivery, Replicate 1 (eggs of Panonychus citri): 0 | Number of hatched larvae 5 days after insecticide delivery, Replicate 2 (eggs of Panonychus citri): 0 | Number of hatched larvae 5 days after insecticide delivery, Replicate 3 (eggs of Panonychus citri): 0 | inhibitory activity on the hatching of eggs of Thrips (in words) (eggs of Thrips): strong inhibitory activities | Hatching rate (%) (eggs of Thrips; Replicate 1): 0.00% | Hatching rate (%) (eggs of Thrips; Replicate 2): 0.83% | Hatching rate (%) (eggs of Thrips; Replicate 3): 0.00% | Number of hatched larvae 5 days after insecticide delivery (eggs of Thrips; Replicate 1): 0 | Number of hatched larvae 5 days after insecticide delivery (eggs of Thrips; Replicate 2): 1 | Number of hatched larvae 5 days after insecticide delivery (eggs of Thrips; Replicate 3): 0 | Hatching rate (%), Replicate 1 [2]: 29.41% | Hatching rate (%), Replicate 2 [2]: 30.16% | Hatching rate (%), Replicate 3 [2]: 29.82% | Number of unhatched larvae 4 days after insecticide delivery, Replicate 1 [2]: 36 | Number of unhatched larvae 4 days after insecticide delivery, Replicate 2 [2]: 44 | Number of unhatched larvae 4 days after insecticide delivery, Replicate 3 [2]: 40

CC[C@H](COc1ccc(Cl)cc1Cl)OS(=O)OCCF (stereo partly drawn) [19-(R,S)]
inhibitory activity on the hatching of eggs of Tetranychus urticae (in words) [1]: strong inhibitory activities | Hatching rate (%) ([1]; Replicate 1): 0.00% | Hatching rate (%) ([1]; Replicate 2): 0.00% | Number of hatched larvae 5 days after insecticide delivery ([1]; Replicate 1): 0 | Number of hatched larvae 5 days after insecticide delivery ([1]; Replicate 2): 0 | inhibitory effect on the hatching of eggs of Panonychus citri (in words) (eggs of Panonychus citri): good inhibitory effects | Hatching rate (%), Replicate 1 (eggs of Panonychus citri): 0.00% | Hatching rate (%), Replicate 2 (eggs of Panonychus citri): 0.00% | Hatching rate (%), Replicate 3 (eggs of Panonychus citri): 0.00% | Number of hatched larvae 5 days after insecticide delivery, Replicate 1 (eggs of Panonychus citri): 0 | Number of hatched larvae 5 days after insecticide delivery, Replicate 2 (eggs of Panonychus citri): 0 | Number of hatched larvae 5 days after insecticide delivery, Replicate 3 (eggs of Panonychus citri): 0 | inhibitory activity on the hatching of eggs of Thrips (in words) (eggs of Thrips): strong inhibitory activities | Hatching rate (%) (eggs of Thrips; Replicate 1): 0.00% | Hatching rate (%) (eggs of Thrips; Replicate 2): 0.00% | Hatching rate (%) (eggs of Thrips; Replicate 3): 0.00% | Number of hatched larvae 5 days after insecticide delivery (eggs of Thrips; Replicate 1): 0 | Number of hatched larvae 5 days after insecticide delivery (eggs of Thrips; Replicate 2): 0 | Number of hatched larvae 5 days after insecticide delivery (eggs of Thrips; Replicate 3): 0 | inhibitory activity on the hatching of eggs of Spodoptera litura (in words) [2]: good inhibitory activities | Hatching rate (%), Replicate 1 [2]: 15.63% | Hatching rate (%), Replicate 2 [2]: 15.25% | Hatching rate (%), Replicate 3 [2]: 16.67% | Number of unhatched larvae 4 days after insecticide delivery, Replicate 1 [2]: 54 | Number of unhatched larvae 4 days after insecticide delivery, Replicate 2 [2]: 50 | Number of unhatched larvae 4 days after insecticide delivery, Replicate 3 [2]: 50

CC(C)(COS(=O)OCCF)Oc1ccc(Cl)cc1Cl (stereo not drawn) [R-10′]
Hatching rate (%) ([1]; Replicate 1): 17.72% | Hatching rate (%) ([1]; Replicate 2): 16.67% | Number of hatched larvae 5 days after insecticide delivery ([1]; Replicate 1): 14 | Number of hatched larvae 5 days after insecticide delivery ([1]; Replicate 2): 16 | Hatching rate (%), Replicate 1 (eggs of Panonychus citri): 10.29% | Hatching rate (%), Replicate 2 (eggs of Panonychus citri): 10.31% | Hatching rate (%), Replicate 3 (eggs of Panonychus citri): 9.62% | Number of hatched larvae 5 days after insecticide delivery, Replicate 1 (eggs of Panonychus citri): 14 | Number of hatched larvae 5 days after insecticide delivery, Replicate 2 (eggs of Panonychus citri): 10 | Number of hatched larvae 5 days after insecticide delivery, Replicate 3 (eggs of Panonychus citri): 10 | Hatching rate (%) (eggs of Thrips; Replicate 1): 13.93% | Hatching rate (%) (eggs of Thrips; Replicate 2): 15.05% | Hatching rate (%) (eggs of Thrips; Replicate 3): 13.97% | Number of hatched larvae 5 days after insecticide delivery (eggs of Thrips; Replicate 1): 17 | Number of hatched larvae 5 days after insecticide delivery (eggs of Thrips; Replicate 2): 14 | Number of hatched larvae 5 days after insecticide delivery (eggs of Thrips; Replicate 3): 19 | Hatching rate (%), Replicate 1 [2]: 61.82% | Hatching rate (%), Replicate 2 [2]: 62.07% | Hatching rate (%), Replicate 3 [2]: 63.64% | Number of unhatched larvae 4 days after insecticide delivery, Replicate 1 [2]: 21 | Number of unhatched larvae 4 days after insecticide delivery, Replicate 2 [2]: 22 | Number of unhatched larvae 4 days after insecticide delivery, Replicate 3 [2]: 24
